These results are taken from the NIST ThermoML archive (doi:10.1021/acs.jced.5b00094).

The structures appear in SMILES notation. Numbers after ± are expanded uncertainties.

This data set can be described thus: wn = mass fraction of the nth substance listed. To be noted: 348 K, 101 kPa, Liquid, Pycnometric method.

A word on the mass density: it is the mass of a sample divided by its volume. With `[Cl-].[Na+]` [sodium chloride] + O, the mass density (w1 = 0.2745) is 1183 ± 1.4 kg/m3.

For `[Cl-].[Cl-].[Sr+2]` [strontium chloride] + O, for the setting “w1 = 0.4775”, the mass density is 1620.5 ± 21 kg/m3.

In the case of `[Cl-].[K+]` [potassium chloride] + O, where the note is “w1 = 0.332”, the mass density turned out to be 1204 ± 1.6 kg/m3.
